{
  "source": "patent US12611443B2",
  "about": "“Methods and compositions related to therapeutic peptides for cancer therapy” (THE UNIVERSITY OF CHICAGO, priority 2018, dated 2026)",
  "key": {"CD95": {"system": "CD95", "test": "CD95 cleavage in cancer cells by western blotting", "assay_type": "cell-based", "method": "FIGS. 1A-1K. ELANE cleaves CD95 to selectively kill cancer cells. (A): Heatmap summary of ELANE's effects on survival, stress, and apoptosis pathways in cancer cells and healthy cells. (B-C): Cancer cells were treated with ELANE (100 nM) and CD95 cleavage was assessed by western blotting using anti-N-terminal (B) or anti-C-terminal antibodies (C). *, lower molecular weight CD95 fragment. (D): Cancer cells or non-cancer cells were transduced to overexpress CD95 proteins, and effects on ELANE-mediated apoptosis were quantified by ANXAS at 30 min. n=2/group. See FIG. 1I for transduction and CD95 over-expression. (E): Cleavage of recombinant human CD95 N-terminal (aa 1-173) or C-terminal (aa 212-335) proteins by ELANE was assessed by SDS-PAGE and Coomassie blue staining. (F): Bands from (E) were digested with trypsin and analyzed by mass spectrometry to identify putative ELANE cleavage sites (i.e., peptides with non-tryptic ends). Major non-tryptic peptides were quantified by ion chromatograms. (G): Schematic of ELANE cleavage sites in CD95. […] (H): Cleavage of recombinant peptides corresponding to aa 214-231 and aa 317-335 in CD95 by ELANE was monitored by mass spectrometry. […] Effect of Dynasore on cancer cell killing capability of ELANE (measured by calcein-AM). n=6/group. […]"}, "[1]": {"system": "E0771 and B16F10 1° and 2° tumors", "test": "Abscopal effect studies", "assay_type": "in vivo, C57BL/6 mice", "method": "Abscopal effect studies. For the E0771 model, 0.5×10^6 cells were injected into the 4th mammary fat pad of the right ventral side (1° tumor) and 0.4×10^6 cells were injected into the 4th mammary fat pad of the left ventral side (2° tumor) of C57BL/6 mice. Once the 1° tumor reached ˜100 mm^3, ELANE or PMSF-ELANE (11.6 μg/100 μL) were injected IT into the 1° tumor once/day for 5 days, and 1° and 2° tumor volumes were measured by calipers. For the B16F10 model, 0.5×10^6 cells were injected into the flank (1° tumor). 7 days later, 0.2×10^6 cells were injected into the lateral tail vein to create 2° lung metastases. Once the 1° tumor reached ˜100 mm^3, ELANE or PMSF-ELANE (11.6 μg/100 μL) were injected IT into the 1° tumor once/day for 5 days, and the 1° tumor volume was measured by calipers. Lungs were excised 10 days after the final ELANE treatment, and 2° lung metastases were counted. For CD8^+ T cell depletion, anti-mouse CD8α (clone 2.43, Bio X Cells) or rat IgG2b (isotype control, Bio X Cells) were injected IV (200 μg/injection) 3 days before the first ELANE treatment, and once/week after the last ELANE treatment. CD8^+ T cell depletion was confirmed by flow cytometry.\nFor the ‘spillover control’, 0.5×10^6 E0771 cells were injected into the 4th mammary fat pad of the left ventral side (2° tumor). ELANE or PMSF-ELANE (11.6 μg/100 μL) were injected into the tumor-free 4th mammary fat pad of the right ventral side pad once/day for 5 days, and 2° tumor volume was measured by calipers.\nFor the ‘specificity control’, 0.5×10^6 E0771 cells were injected into the into the 4th mammary fat pad of the right ventral side (1° tumor) and 7 days later, 1×10^6B16F10 cells were injected into the flank (2° tumor). Once the 1° tumor reached ˜100 mm^3, ELANE or PMSF-ELANE (11.6 μg/100 μL) were injected IT into the 1° tumor once/day for 5 days, and 1° and 2° tumor volumes were measured by calipers."}, "MDA-MB-231 cells": {"system": "MDA-MB-231 cells", "test": "Resistance to ELANE, repeated exposure in vitro", "assay_type": "cell-based, human", "conditions": "7 exposures, ˜90% death/exposure", "description": "To explore whether cancer cells could acquire resistance to ELANE, a combination of in vitro and in vivo approaches were used."}, "[2]": {"system": "survival, stress, and apoptosis pathways in normal or non-cancer cells", "test": "Killing program in normal or non-cancer cells", "assay_type": "cell-based", "method": "Western Blot Analysis. Cells were lysed with 1% SDS containing protease and phosphatase inhibitors (Sigma), and protein was quantified with the BCA Protein Assay Kit (Pierce). Proteins (10-20 μg) were resolved on 10%, 12.5%, 15%, or 20% SDS-PAGE gels depending on the target protein, transferred to PVDF membranes (Millipore), blocked with 5% BSA (Sigma) in 0.1% TBS/Tween-20 at RT for 2 hrs, stained with primary and secondary antibodies, and visualized using the ECL detection kit (Biorad) and a LI-COR imager. Antibodies—Antibodies against pERK (4370), ERK (4695), pNFκB (3033), NFκB (8242), pJNK (4668), JNK (9252), CASP3 (9662), PARP (9542), H2AX (2595), TUBB (2125) were from Cell Signaling Technology. Antibodies against γH2AX (05-636-I, Millipore), ELANE (68672, Abcam), N-terminal CD95 (3070R, BioVision), and C-terminal CD95 (60196, Proteintech).\nMitochondrial ROS measurements. Cells were treated with various doses of ELANE for 30 min, washed, labeled with the CM-H2DCFDA dye (ThermoFisher Scientific, 10 μM) for 30 min at 37° C., and fluorescence was quantified by flow cytometry."}},
  "data": [
    {"substance": "ELANE: neutrophil elastase, a serine protease released by human PMNs", "values": [
      {"measurement": "loss of full-length CD95 after cleavage", "setting": "CD95", "result": "did not result in loss of full-length CD95"},
      {"measurement": "CD95 cleavage in cancer cells", "setting": "CD95; ELANE 100 nM", "result": "cleaved CD95 in all cancer cells tested"},
      {"measurement": "number of 2° lung metastases", "setting": "[1]; 1° B16F10 tumor treated, 12 μg/day for 5 days", "result": "lowered the number of lung metastases"},
      {"measurement": "tumorigenesis in 2° B16F10 tumor (specificity control)", "setting": "[1]; 1° E0771 tumor treated", "result": "did not impact tumorigenesis in a 2° B16F10 tumor"},
      {"measurement": "tumorigenesis at 1° and 2° E0771 tumors", "setting": "[1]; 1° tumor treated, 12 μg/day for 5 days", "result": "attenuated tumorigenesis at both sites"},
      {"measurement": "abscopal effect after depleting CD8+ T cells", "setting": "[1]; both models", "result": "attenuated ELANE's abscopal effect in both models"},
      {"measurement": "tumorigenesis after injection into contralateral site", "setting": "[1]; opposite the tumor, tumor-bearing mice", "result": "failed to attenuate tumorigenesis"},
      {"measurement": "acquired resistance after repeated exposure in vitro", "setting": "MDA-MB-231 cells", "result": "did not confer resistance"},
      {"measurement": "killing program in normal or non-cancer cells", "setting": "[2]", "result": "did not induce this program in all normal or non-cancer cells tested"}
    ]}
  ]
}
